Measurements as given in patent US20200230126A1, “TARGETED THERAPEUTICS” (TARVEDA THERAPEUTICS, INC., priority 2017, published 2020).

Tests used:
Assay type in all cases: physicochemical
Solubility in water = test: Solubility in water
Text: As discussed above, the solubility of SDC-TRAP-0063 Sodium is driven primarily by pH. […] Reducing the pH allows the equilibrium to shift more to the lactone form and adversely impacts solubility. Dilute solutions of SDC-TRAP-0063 Sodium result in a lower pH with an increased risk of precipitation. The solubility of SDC-TRAP-0063 Sodium has also been seen to be adversely impacted by the use of 0.9% Sodium Chloride as a diluent. A common ion effect is the likely source of this observation.

[1] = Particulate formation in dosing solutions using 0.9% Sodium Chloride, 5% Mannitol and 5% Dextrose adjusted to the low USP pH limits, with rocking (appearance, pH, HPLC recovery); parameters: key to appearance: Conforms = clear and essentially free of visible particles
Method: A study was conducted with 0.6 mg/mL and 2.4 mg/mL solutions of SDC-TRAP-0063 Sodium using one of three diluents; 0.9% Sodium Chloride as a positive control, and 5% Dextrose and 5% Mannitol as potential new diluents (Table 2). Each diluent was prepared at the lower pH limit of USP to test a worst-case scenario for solubility (the starting pH was 4.5 for 0.9% Sodium Chloride and 5% Mannitol and 3.2 for 5% Dextrose). The SDC-TRAP-0063 Sodium dosing solutions were prepared in glass vials and then placed on a rocker. […]

[2] = Solubility at various pH in 5% Mannitol (HCl addition, about 24 hours equilibration, 0.2 μm filtration); parameters: key to appearance: Conforms = clear and essentially free of visible particles
Method: (§1) Experiments were performed to assess the solubility of SDC-TRAP-0063 Sodium as a function of varying pH.

[3] = Solubility at various pH in 0.9% Sodium Chloride (HCl addition, about 24 hours equilibration, 0.2 μm filtration); parameters: key to appearance: Conforms = clear and essentially free of visible particles; settings: 0.9% Saline
Method: as §1

[4] = pH of reconstituted solution and dosing solutions
Method: The reconstituted solution of SDC-TRAP-0063 Sodium has a pH of about 10.0. This solution is diluted to the target dose in 5% Mannitol, USP. The pH of the infusion solution depends on the concentration of SDC-TRAP-0063 Sodium in the diluted infusion solution. Across the dose ranges employed in the clinical study protocol, the volume of the diluted infusion solution administered will range from 50 to 500 mL, and the pH will range from 8.1 to 9.6. In order to reduce the potential risks of injection site pain and/or damage to the venous endothelium during IV administration, a central venous access line is used for administration of the diluted SDC-TRAP-0063 Sodium.
A new, more robust and patient-friendly formulation of dosing solution was developed. During this development, it was established that the pH of the dosing solution is driven by the concentration of SDC-TRAP-0063 Sodium and increasing the SDC-TRAP-0063 Sodium concentration allows better control of the solubility and pH of dosing solutions.
It is believed that a common ion effect is decreasing the solubility of SDC-TRAP-0063 Sodium in 0.9% Sodium Chloride solution.

[5] = In-use stability study of dosing solutions in 5% Mannitol (mixing container, syringe pump, administration set)
Method: In this study, SDC-TRAP-0063 sodium was dissolved in 5% Mannitol within the concentration range of 3-12 mg/mL. The stabilities of the SDC-TRAP-0063/Mannitol solution in an infusion container and during administration via a syringe pump were studied.
Dosing solutions of 3, 6 and 12 mg/mL of SDC-TRAP-0063 Na were prepared in 250 mL Intravia mixing containers. Pre-determined numbers of vials of SDC-TRAP-0063 Na were re-constituted with WFI and SDC-TRAP-0063 Na was transferred into mixing containers containing 5% mannitol. Each preparation was performed in duplicate.
An in-use test was performed to simulate the clinical infusion process. Freshly prepared dosing solutions were withdrawn from the Intravia containers with the specified syringe size and volume, plus an additional 2 mL for flushing the administration set. The volume of the IV administration set is O.7 mL; the 2 mL flush volume was selected according to standard pharmacy practice. After the administration set was flushed, the syringe was placed on a syringe pump and held at room temperature for 4 hours followed by a 2-hour infusion process. For the 15 mg dose level the simulation infusion was for 1 hour, because the minimal infusion rate specified by clinic was not less than 5 mL/hour. Samples were collected from the mixing containers at T0 and T2 hours and from the administration sets at T0 and from the bulk container at the end of infusion, at T5 hours for 15 mg sample and at T6 hours for all other samples, as outlined in Table 8.
A flexible bracketing design, intended to cover possible syringe volumes from 10 to 60 mL of nominal volumes, possible variation of the syringe fill volumes from 10 to 75% of the nominal syringe volume and concentration ranges of the dosing solutions from 3 to 12 mg/ml was executed in this study. The maximum fill volume for each syringe is limited to 75% of the nominal volume.

[6] = 0 molar percent HCl added, pH 9.9
[7] = 8.1 molar percent HCl added, pH 9.6
[8] = 14.4 molar percent HCl added, pH 9.1
[9] = 33.1 molar percent HCl added, pH 8.7
[10] = 35.5 molar percent HCl added, pH 8.7

CCc1c2c(nc3ccc(OC(=O)N4CCC(CCn5ccc6cc(-n7c(O)nnc7-c7cc(C(C)C)c(O)cc7O)ccc65)CC4)cc13)-c1cc([C@@](O)(CC)C(=O)[O-])c(CO)c(=O)n1C2.[Na+] [SDC-TRAP-0063 Sodium, Sodium (S)-2-(2-((4-(2-(5-(3-(2,4-dihydroxy-5-isopropylphenyl)-5-hydroxy-4H-1,2,4-triazol-4-yl)-1H-indol-1-yl)ethyl)piperidine-1-carbonyl)oxy)-12-ethyl-8-(hydroxymethyl)-9-oxo-9,11-dihydroindolizino[1,2-b]quinolin-7-yl)-2-hydroxybutanoate]
solubility (Solubility in water): > 52.5 mg/mL
pH ([1]; 0.9% Sodium Chloride, pH 4.5, 0.6 mg/mL): 8.7
appearance ([1]; 0.9% Sodium Chloride, pH 4.5, 0.6 mg/mL, 0 hours): Conforms^1
appearance ([1]; 0.9% Sodium Chloride, pH 4.5, 0.6 mg/mL, 6 hours): Precipitate
appearance ([1]; 0.9% Sodium Chloride, pH 4.5, 0.6 mg/mL, 24 hours): Precipitate
pH ([1]; 0.9% Sodium Chloride, pH 4.5, 2.4 mg/mL): 9.4
appearance ([1]; 0.9% Sodium Chloride, pH 4.5, 2.4 mg/mL, 0 hours): Conforms^1
appearance ([1]; 0.9% Sodium Chloride, pH 4.5, 2.4 mg/mL, 6 hours): Precipitate
appearance ([1]; 0.9% Sodium Chloride, pH 4.5, 2.4 mg/mL, 24 hours): Precipitate
pH ([1]; 5% Dextrose, pH 3.2, 0.6 mg/mL): 7.5
appearance ([1]; 5% Dextrose, pH 3.2, 0.6 mg/mL, 0 hours): Conforms^1
appearance ([1]; 5% Dextrose, pH 3.2, 0.6 mg/mL, 6 hours): Precipitate
appearance ([1]; 5% Dextrose, pH 3.2, 0.6 mg/mL, 24 hours): Precipitate
pH ([1]; 5% Dextrose, pH 3.2, 2.4 mg/mL): 9.1
appearance ([1]; 5% Dextrose, pH 3.2, 2.4 mg/mL, 0 hours): Conforms^1
appearance ([1]; 5% Dextrose, pH 3.2, 2.4 mg/mL, 6 hours): Conforms^1
appearance ([1]; 5% Dextrose, pH 3.2, 2.4 mg/mL, 24 hours): Precipitate
pH ([1]; 5% Mannitol, pH 4.5, 0.6 mg/mL): 8.6
appearance ([1]; 5% Mannitol, pH 4.5, 0.6 mg/mL, 0 hours): Conforms^1
appearance ([1]; 5% Mannitol, pH 4.5, 0.6 mg/mL, 6 hours): Precipitate
appearance ([1]; 5% Mannitol, pH 4.5, 0.6 mg/mL, 24 hours): Precipitate
pH ([1]; 5% Mannitol, pH 4.5, 2.4 mg/mL): 9.8
appearance ([1]; 5% Mannitol, pH 4.5, 2.4 mg/mL, 0 hours): Conforms^1
appearance ([1]; 5% Mannitol, pH 4.5, 2.4 mg/mL, 6 hours): Conforms^1
appearance ([1]; 5% Mannitol, pH 4.5, 2.4 mg/mL, 24 hours): Conforms^1
appearance ([2]; 0 molar percent HCl added, pH 10.1): Conforms^2
SDC-TRAP-0063 Sodium concentration in the solution ([2]; 0 molar percent HCl added, pH 10.1, after 24 hours of rocking, starting 23.6 mg/mL): >23.6 (after mg/mL
SDC-TRAP-0063 Sodium concentration in the solution ([2]; 10.5 molar percent HCl added, pH 9.9): >23.5 mg/mL
SDC-TRAP-0063 Sodium concentration in the solution ([2]; 18.2 molar percent HCl added, pH 9.9): >23.3 mg/mL
SDC-TRAP-0063 Sodium concentration in the solution ([2]; 33.1 molar percent HCl added, pH 9.1): 20.2 mg/mL
SDC-TRAP-0063 Sodium concentration in the solution ([2]; 35.5 molar percent HCl added, pH 9.4): 20.9 mg/mL
precipitation ([2]; maximum concentration of 12 mg/mL): does not result in precipitation
SDC-TRAP-0063 Sodium concentration in the solution [3, 6]: 22.9 mg/mL
appearance [3, 6]: Conforms^1
SDC-TRAP-0063 Sodium concentration in the solution [3, 7]: 23.4 mg/mL
appearance [3, 7]: Slightly hazy solution
SDC-TRAP-0063 Sodium concentration in the solution [3, 8]: 21.4 mg/mL
appearance [3, 8]: Slightly hazy solution
SDC-TRAP-0063 Sodium concentration in the solution [3, 9]: 18.6 mg/mL
appearance [3, 9]: Slightly hazy solution
appearance ([3]; 33.1 molar percent HCl added, pH 8.7, after 1 hour): gelation after 1 hour
SDC-TRAP-0063 Sodium concentration in the solution [3, 10]: 13.7 mg/mL
appearance [3, 10]: Slightly hazy solution
appearance ([3]; 35.5 molar percent HCl added, pH 8.7, after 1 hour): gelation after 1 hour
pH observed for dosing solutions ([4]; 0.9% Sodium chloride): 8.6-8.7
pH range observed for dosing solutions ([4]; 5% Mannitol): 9.4-10.2
observed pH for all dosing solutions ([4]; 5% Mannitol, concentrations from 3-12 mg/mL): ≥ 9.4
total impurities ([5]; 2-hour storage in mixing containers and total of 6 hours simulated hold and infusion (5 hours for 15 mg dose)): within the acceptable ranges
HPLC assay values ([5]; 3, 6 and 12 mg/mL, samples collected during the study): did not show any trends and were within expected ranges
appearance of test samples ([5]; 3, 6 and 12 mg/mL, up to 6 hours): clear solutions essentially free of particles
in-use stability profile ([5]; concentration range of 3-12 mg/mL): acceptable stability profile
